System: 817829-284-R-J1-PDC complex spheroid viability
Experiment: Anticancer human tumor 817829-284-R-J1-PDC patient-derived colon adenocarcinoma cell line growth inhibition [POLQ]
Details: for IC50: curve of first compound; for viability, T/C: stronger effect = lower value
Method in brief: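 Complex spheroid viability model combining PDC tumour cells with endothelial (HUVEC) and MSC stromal cells. Novobiocin, ART-558 or RP6685 were tested singly and in combination with standard and investigational anticancer drugs. Each was titrated in half-log steps from near clinical Cmax, or from 10 microM where Cmax was unknown.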

[1] = second compound 0.0316 µM, first compound 0.0316 µM
[2] = second compound 0.0316 µM, first compound 0.1 µM
[3] = second compound 0.0316 µM, first compound 0.316 µM
[4] = second compound 0.0316 µM, first compound 1 µM
[5] = second compound 0.0316 µM, first compound 3.16 µM
[6] = second compound 0.0316 µM, first compound 10 µM
[7] = second compound 0.1 µM, first compound 0.0316 µM
[8] = second compound 0.1 µM, first compound 0.1 µM
[9] = second compound 0.1 µM, first compound 0.316 µM
[10] = second compound 0.1 µM, first compound 1 µM
[11] = second compound 0.1 µM, first compound 3.16 µM
[12] = second compound 0.1 µM, first compound 10 µM
[13] = second compound 0.316 µM, first compound 0.0316 µM
[14] = second compound 0.316 µM, first compound 0.1 µM
[15] = second compound 0.316 µM, first compound 0.316 µM
[16] = second compound 0.316 µM, first compound 1 µM
[17] = second compound 0.316 µM, first compound 3.16 µM
[18] = second compound 0.316 µM, first compound 10 µM
[19] = second compound 1 µM, first compound 0.0316 µM
[20] = second compound 1 µM, first compound 0.1 µM
[21] = second compound 1 µM, first compound 0.316 µM
[22] = second compound 1 µM, first compound 1 µM
[23] = second compound 1 µM, first compound 3.16 µM
[24] = second compound 1 µM, first compound 10 µM
[25] = second compound 3.16 µM, first compound 0.0316 µM
[26] = second compound 3.16 µM, first compound 0.1 µM
[27] = second compound 3.16 µM, first compound 0.316 µM
[28] = second compound 3.16 µM, first compound 1 µM
[29] = second compound 3.16 µM, first compound 3.16 µM
[30] = second compound 3.16 µM, first compound 10 µM
[31] = second compound 10 µM, first compound 0.0316 µM
[32] = second compound 10 µM, first compound 0.1 µM
[33] = second compound 10 µM, first compound 0.316 µM
[34] = second compound 10 µM, first compound 1 µM
[35] = second compound 10 µM, first compound 3.16 µM
[36] = second compound 10 µM, first compound 10 µM
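Note: spheroids exposed to compounds for 7 days.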
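Throughout, for viability, T/C: 100% = DMSO vehicle-treated spheroids.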

Question: `C=CC(=O)N1CCN(c2nc(=O)n(-c3c(C)ccnc3C(C)C)c3nc(-c4c(O)cccc4F)c(F)cc23)C(C)C1` (stereo unspecified) + Nc1ccc(C#CCN(C(=O)Cc2ncc(C(F)(F)F)cc2C(F)(F)F)c2ccc(F)cc2)nn1 was tested. Which IC50 (second compound 0.0316 µM) did it give?
Answer: The IC50 was > 10 µM.

Question: And the IC50 (second compound 0.1 µM)?
Answer: Its IC50 is > 10 µM.

Question: And the IC50 (second compound 0.316 µM)?
Answer: Its IC50 is > 10 µM.

Question: What about the IC50 (second compound 1 µM) of the same compound?
Answer: The IC50 was > 10 µM.

Question: And the IC50 (second compound 3.16 µM)?
Answer: The IC50 was 9.67 µM.

Question: What about the IC50 (second compound 10 µM) of the same compound?
Answer: Its IC50 is > 10 µM.

Question: And the viability, T/C [1]?
Answer: Its viability, T/C is 77.4%.

Question: And the viability, T/C [2]?
Answer: The viability, T/C was 103%.

Question: And the viability, T/C [3]?
Answer: Its viability, T/C is 97.2%.

Question: And the viability, T/C [4]?
Answer: Its viability, T/C is 93.5%.

Question: And the viability, T/C [5]?
Answer: The viability, T/C was 91.7%.

Question: And the viability, T/C [6]?
Answer: Its viability, T/C is 51.3%.

Question: What about the viability, T/C [7] of the same compound?
Answer: The viability, T/C was 95%.

Question: What about the viability, T/C [8] of the same compound?
Answer: The viability, T/C was 110%.

Question: What about the viability, T/C [9] of the same compound?
Answer: Its viability, T/C is 101%.

Question: And the viability, T/C [10]?
Answer: The viability, T/C was 99.8%.

Question: And the viability, T/C [11]?
Answer: The viability, T/C was 84.2%.

Question: What about the viability, T/C [12] of the same compound?
Answer: The viability, T/C was 60.5%.

Question: And the viability, T/C [13]?
Answer: The viability, T/C was 104%.

Question: What about the viability, T/C [14] of the same compound?
Answer: Its viability, T/C is 91.3%.

Question: What about the viability, T/C [15] of the same compound?
Answer: The viability, T/C was 96.6%.

Question: And the viability, T/C [16]?
Answer: Its viability, T/C is 98%.

Question: What about the viability, T/C [17] of the same compound?
Answer: Its viability, T/C is 93.5%.

Question: And the viability, T/C [18]?
Answer: Its viability, T/C is 61.6%.

Question: What about the viability, T/C [19] of the same compound?
Answer: Its viability, T/C is 102%.

Question: What about the viability, T/C [20] of the same compound?
Answer: The viability, T/C was 119%.

Question: What about the viability, T/C [21] of the same compound?
Answer: Its viability, T/C is 112%.

Question: And the viability, T/C [22]?
Answer: The viability, T/C was 97.8%.

Question: What about the viability, T/C [23] of the same compound?
Answer: Its viability, T/C is 94.5%.

Question: What about the viability, T/C [24] of the same compound?
Answer: Its viability, T/C is 52.9%.

Question: And the viability, T/C [25]?
Answer: The viability, T/C was 96%.

Question: And the viability, T/C [26]?
Answer: Its viability, T/C is 89%.

Question: And the viability, T/C [27]?
Answer: Its viability, T/C is 102%.

Question: What about the viability, T/C [28] of the same compound?
Answer: Its viability, T/C is 90.8%.

Question: And the viability, T/C [29]?
Answer: Its viability, T/C is 76.2%.

Question: And the viability, T/C [30]?
Answer: The viability, T/C was 49.2%.

Question: What about the viability, T/C [31] of the same compound?
Answer: The viability, T/C was 114%.

Question: And the viability, T/C [32]?
Answer: Its viability, T/C is 84.1%.

Question: And the viability, T/C [33]?
Answer: The viability, T/C was 90.6%.

Question: And the viability, T/C [34]?
Answer: The viability, T/C was 90%.

Question: And the viability, T/C [35]?
Answer: Its viability, T/C is 79.8%.

Question: What about the viability, T/C [36] of the same compound?
Answer: Its viability, T/C is 51%.

Question: What does the source list for `CC(C)n1c(=O)n(C)c2cnc3cc(F)c(-c4ccc(OCCCN5CCCCC5)nc4)cc3c21` + Nc1ccc(C#CCN(C(=O)Cc2ncc(C(F)(F)F)cc2C(F)(F)F)c2ccc(F)cc2)nn1?
Answer: IC50 (second compound 0.0316 µM): > 10 µM; IC50 (second compound 0.1 µM): 7.8 µM; IC50 (second compound 0.316 µM): 8.1 µM; IC50 (second compound 1 µM): 6.5 µM; IC50 (second compound 3.16 µM): 9.72 µM; IC50 (second compound 10 µM): 7.91 µM; viability, T/C [1]: 84.8%; viability, T/C [2]: 92.4%; viability, T/C [3]: 79.6%; viability, T/C [4]: 95.8%; viability, T/C [5]: 85.7%; viability, T/C [6]: 60.4%; viability, T/C [7]: 85.2%; viability, T/C [8]: 77.2%; viability, T/C [9]: 94.5%; viability, T/C [10]: 88.9%; viability, T/C [11]: 84.8%; viability, T/C [12]: 40.4%; viability, T/C [13]: 96.1%; viability, T/C [14]: 95%; viability, T/C [15]: 110%; viability, T/C [16]: 83.1%; viability, T/C [17]: 81.3%; viability, T/C [18]: 43.3%; viability, T/C [19]: 95%; viability, T/C [20]: 89.1%; viability, T/C [21]: 103%; viability, T/C [22]: 87.7%; viability, T/C [23]: 76%; viability, T/C [24]: 34.7%; viability, T/C [25]: 81.8%; viability, T/C [26]: 86.2%; viability, T/C [27]: 105%; viability, T/C [28]: 94.5%; viability, T/C [29]: 92.8%; viability, T/C [30]: 48.9%; viability, T/C [31]: 81.7%; viability, T/C [32]: 96%; viability, T/C [33]: 106%; viability, T/C [34]: 76.3%; viability, T/C [35]: 82.2%; viability, T/C [36]: 42%

Question: What does the source list for `CC1COCCN1c1cc(-c2ccnn2C)c2ccnc(-c3ccn[nH]3)c2n1` (stereo unspecified) + Nc1ccc(C#CCN(C(=O)Cc2ncc(C(F)(F)F)cc2C(F)(F)F)c2ccc(F)cc2)nn1?
Answer: IC50 (second compound 0.0316 µM): 0.0457 µM; IC50 (second compound 0.1 µM): 0.0479 µM; IC50 (second compound 0.316 µM): 0.0414 µM; IC50 (second compound 1 µM): 0.0486 µM; IC50 (second compound 3.16 µM): 0.0536 µM; IC50 (second compound 10 µM): 0.0512 µM; viability, T/C [1]: 66.6%; viability, T/C [2]: 15.1%; viability, T/C [3]: 5.55%; viability, T/C [4]: 3.95%; viability, T/C [5]: 3.46%; viability, T/C [6]: 3.51%; viability, T/C [7]: 69.3%; viability, T/C [8]: 16.2%; viability, T/C [9]: 5.6%; viability, T/C [10]: 3.72%; viability, T/C [11]: 3.57%; viability, T/C [12]: 2.68%; viability, T/C [13]: 60.5%; viability, T/C [14]: 16.4%; viability, T/C [15]: 5.61%; viability, T/C [16]: 3.98%; viability, T/C [17]: 3.56%; viability, T/C [18]: 2.61%; viability, T/C [19]: 70.6%; viability, T/C [20]: 15.2%; viability, T/C [21]: 6.24%; viability, T/C [22]: 4.01%; viability, T/C [23]: 3.75%; viability, T/C [24]: 3.12%; viability, T/C [25]: 72.8%; viability, T/C [26]: 23.1%; viability, T/C [27]: 5.89%; viability, T/C [28]: 4.04%; viability, T/C [29]: 3%; viability, T/C [30]: 3.74%; viability, T/C [31]: 73.9%; viability, T/C [32]: 16.9%; viability, T/C [33]: 5.59%; viability, T/C [34]: 3.74%; viability, T/C [35]: 3.56%; viability, T/C [36]: 2.98%
